Results reported in patent US8669250B2, “Derivatives of aryl-{4-halogeno-4-[aminomethyl]-piperidin-1-yl}-methanone, their method of preparation and their use as medicinal products” (Pierre Fabre Medicament, priority 2009, dated 2014).
“Also recorded” adds a separate entry of the source.

Key:
[1] = test system: rats, formol-induced pain; assay: Formol test (analgesic activity, physiological pain); format: in vivo; settings: rat, i.p.
Source text: (§1) The physiological pain model chosen by the inventors to determine the analgesic activity of the compounds of the invention uses excess nociceptive stimuli (injection of formol) to cause a painful sensation in animal (Eur. J. Pharmacol. 2001, 421, 109). For the so-called pathological pain model in animal, the inventors chose to use pain induced by the injection of a cytotoxic agent such as oxaliplatine (Eur. J. Cancer 2007, 2658).
The rats (Male Sprague Dawley rats (ICO: OFA SD [IOPS], Iffa Credo, France) are placed in plexiglass observation boxes above an angled mirror so as to facilitate observation of the hind paws. After thirty minutes of habituation, the animals are given an injection of formol diluted to 2.5% on the plantar surface of the right hind paw. The injection of formol produces behavioural responses which occur in two phases:
an acute phase, from 0 to 5 min after injection of the formol, corresponding to stimulation of receptors specialized in the transmission of pain messages to the spinal cord.
a late phase which occurs 20 to 30 min after the injection. This phase corresponds to stimulation of receptors by inflammatory mediators and/or to hyper-excitability of the dorsal horn induced during the first phase. This late phase therefore involves central sensitization.
For the study of the compounds of the invention we selected two expressions of painful behaviour and chose two periods of observation which correspond to the two pain phases (i.e. 0-5 min and 22.5-27.5 min). During these two 5-min periods the animals are observed every 30 seconds and are given scores for the following behaviours: paw licking or not of the injected paw, and lifting or non-lifting of the injected paw. Ten observations give a maximum score of 10 for each parameter for each of the 2 phases. The products of the invention are administered via intraperitoneal route 15 min before the injection of formol.
(§2) Quantification of the effect of the compounds of the invention on the forced swimming tests and on the formol test is conducted by one-factor variance analysis between groups (ANOVA analysis) followed by a multiple comparison test (Dunnett's test) versus control animals. The ED50 value is calculated using Litchfield and Wilcoxon analysis from the percentage of responding animals.
For this test, the animals are observed every 30 seconds during two periods of 5 min. The following behaviours are noted: paw licking or not of the injected paw, and paw lifting or not of the injected paw. Ten observations give a maximum score of 10 for each parameter for each of the 2 phases, measuring either paw lifting or paw licking. This test was also performed by comparison with administration of the vehicle (veh) alone.

[2] = test system: rats, oxaliplatine-induced allodynia; assay: Oxaliplatine test, von Frey (analgesic activity, pathological pain); format: in vivo; settings: rat, i.p.
Source text: as §1
The rats (Male Sprague Dawley rats (ICO: OFA SD [IOPS], Iffa Credo, France) are tested a first time on the Friday to determine their mechanical sensitivity threshold (von Frey test). They are then given an intra-peritoneal injection (i.p.) of oxaliplatine (anticancer treatment causing neuropathic pain in patients) at a dose of 8 mg/kg. This dose in rat induces neuropathy which translates as mechanical hypersensitivity (allodynia) which develops 3 days after the injection with a peak on day five. For the study of the compounds of the invention, the animals are re-tested on day five, 15 min after administration of the compound via intra-peritoneal route.
The pressure force is then measured (in g) at which withdrawal of the paw of the animals is observed.

[3] = test system: rats, forced swimming immobility; assay: Forced swimming test (antidepressant activity); format: in vivo; settings: rat, oral
Description: (§3) The affinity of the compounds of the invention for the rat 5-HT1A receptor was measured conventionally from competitive experiments with a radiolabelled 5-HT1A agonist. […] This test is widely used since it is predictive of antidepressant action in man. Analgesic activity was determined after intra-peritoneal administration to rats, both with a physiological pain model and a pathological pain model. By physiological pain, the inventors designate pain whose origin is a lesion and/or organic ill-function such as pain caused by excessive nociceptive stimuli.
The rats (Male Sprague Dawley rats (ICO: OFA SD [IOPS], Iffa Credo, France), are placed in a cylinder (45 cm high and 20 cm in diameter) filled with water at 25° C.±0.5 up to a height of 17 cm. This depth allows rats to swim or float without their tail touching the bottom of the cylinder.
24 h before the test day, the rats are placed in the cylinder for 15 min, a lapse of time after which they no longer attempt to escape and remain immobile. On the test day the animals are replaced in the cylinder and the duration of animal immobility is measured by direct observation followed by verification of an audiovisual recording for 5 min. The products of the invention are administered by oral route 60 min before the test. A rat is considered to be immobile if it allows itself to float and only makes small movements to remain on the surface. Two rats are observed at the same time.
as §2

[4] = molecular target: T1, 5-HT1A receptor (Rattus norvegicus, UniProt P19327); assay: Affinity for 5-HT1A receptors, shift of (3H)8-OH-DPAT in rat cerebral cortex; format: binding; settings: mean of at least 3 experiments, read-out: 5-HT1A affinity (pKi) (converted)
T1 construct: the cerebral cortex is sampled and homogenized in 20 volumes of buffer; from tissue; host or cells: rat cerebral cortex homogenate (membranes)
T1 sequence (P19327 1-422): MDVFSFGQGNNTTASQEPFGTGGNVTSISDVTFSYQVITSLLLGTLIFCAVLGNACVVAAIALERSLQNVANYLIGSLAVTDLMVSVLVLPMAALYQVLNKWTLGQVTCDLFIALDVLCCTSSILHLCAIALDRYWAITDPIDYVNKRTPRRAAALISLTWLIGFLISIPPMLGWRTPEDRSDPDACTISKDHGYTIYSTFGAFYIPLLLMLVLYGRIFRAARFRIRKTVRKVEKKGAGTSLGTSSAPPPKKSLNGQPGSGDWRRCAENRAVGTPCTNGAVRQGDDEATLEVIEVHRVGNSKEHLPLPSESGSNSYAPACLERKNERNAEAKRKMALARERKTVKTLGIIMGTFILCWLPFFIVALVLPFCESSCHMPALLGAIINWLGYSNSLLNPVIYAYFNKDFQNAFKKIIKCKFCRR
Description: as §3
The in vitro affinity of the compounds of the invention for the 5-HT1A receptors was determined by measuring the shift of (^3H)8-OH-DPAT (agonist of 5HT1A receptors labelled with tritium, TRK 850; 160-240 Ci/mmole).
The study on binding with the 5-HT1A receptor was conducted as described in Naunyn-Schmiedeberg's Arch. Pharmaco. 1991, 343, 106. For these experiments, rat cerebral cortices were used. After unfreezing the brain in Tris-HCl buffer 50 mmol, pH=7.40 at 25° C., the cerebral cortex is sampled and homogenized in 20 volumes of buffer held at 4° C. The homogenate is centrifuged at 39000 g for 10 min, the centrifuge residue is suspended in the same volume of buffer and again centrifuged. After further suspension under the same conditions, the homogenate is incubated for 10 min at 37° C. then again centrifuged. The final residue is suspended in cold reaction buffer Tris-HCl 50 mmol, pH=7.40 at 25° C. containing […] of pargyline, 4 mmol of CaCl2 and 0.10% ascorbic acid. The final concentration of the tissue in the incubation medium is 10 mg/tube.
The reaction tubes contain 0.10 mL of (^3H)8-OH-DPAT (final […]), 0.10 mL of product to be tested 6-7 concentrations and 0.80 mL of tissue. Non-specific binding is defined using […] of 5-HT. The reaction tubes are incubated at 23° C. for 30 min then their content is rapidly vacuum filtered through Whatman GF/B filters, the tubes are rinsed with 2×5 mL of Tris-HCl buffer 50 mmol, pH=7.4 at 25° C. Radioactivity is collected on the filter and analyzed by liquid scintillation by adding 4 mL of scintillating liquid (Emulsifier Safe, Packard). All experiments were performed in triplicate.
The inhibition constants (Ki) of the products of the invention are estimated from shift experiments using the non-linear regression programme RADLIG version 4 by EBDA (Equilibrium Binding Data Analysis Biosoft, Cambridge, UK, Mc Pherson, 1985). The dissociation constant of the radioactive ligand used for calculations is […] for (^3H)8-OH-DPAT. The values of pKi (−log Ki) are given in the form mean±SEM of at least 3 experiments.

Question: Which ED50 ([1]; ip, 15 min before formol, read-out: ED50, inhibition of paw lifting) does the source give for O=C(c1ccc(F)c(Cl)c1)N1CCC(F)(CNCC2CNc3ccccc3O2)CC1 (single isomer, unassigned; (-)) [Compound 1a1, (−)-(3-Chloro-4-fluoro-phenyl)-{4-fluoro-4-[(3,4-dihydro-2H-1,4-benzoxazine-2-methanamino)-methyl]-pipéridin-1-yl}-methanone] here?
Answer: The ED50 was 0.05 mg/kg.

Question: What about the “effect on paw lifting and paw licking, in words” value ([1]; acute and late phases) of the same compound?
Answer: Its value is “dose-dependent inhibition of the 2 measured parameters; also recorded: Full analgesia is obtained irrespective of the pain phase”.

Question: And the “dose on and after which full analgesia is obtained” value ([2]; day five after oxaliplatine, von Frey)?
Answer: Its value is ≥ 0.04 mg/kg.

Question: What about the “effect on allodynia, in words” value ([2]; dose range) of the same compound?
Answer: The value was “dose-dependent inhibition of allodynia”.

Question: What about the “dose on and after which none of the animals remains immobile” value [3] of the same compound?
Answer: The value was ≥ 10 mg/kg.

Question: What about the ED50 ([3]; 60 min before test, read-out: ED50, reduction of immobility time) of the same compound?
Answer: The ED50 was 0.08 mg/kg.

Question: And the “effect on animal immobility time” value ([3]; dose range)?
Answer: Its value is “reducing the animal's immobility time in dose-dependent fashion”.

Question: What about the Ki [4] of the same compound?
Answer: Its Ki is 1.02 nM.
